Key:
Assay type in all cases: cell-based
AR protein = target: T1, AR protein (Homo sapiens, UniProt P10275, T878A); assay: AR protein degradation in LNCaP cells (Western blot); conditions: 8 hours; for Degradation of AR protein in LNCaP cells, 10 nM (%) / percent AR protein degradation at a fixed concentration at 0.01 µM: 10 nM; for Degradation of AR protein in LNCaP cells, 100 nM (%) / percent AR protein degradation at a fixed concentration at 0.1 µM: 100 nM
T1 construct: host or cells: LNCaP FGC
T1 sequence (P10275 1-920 T878A): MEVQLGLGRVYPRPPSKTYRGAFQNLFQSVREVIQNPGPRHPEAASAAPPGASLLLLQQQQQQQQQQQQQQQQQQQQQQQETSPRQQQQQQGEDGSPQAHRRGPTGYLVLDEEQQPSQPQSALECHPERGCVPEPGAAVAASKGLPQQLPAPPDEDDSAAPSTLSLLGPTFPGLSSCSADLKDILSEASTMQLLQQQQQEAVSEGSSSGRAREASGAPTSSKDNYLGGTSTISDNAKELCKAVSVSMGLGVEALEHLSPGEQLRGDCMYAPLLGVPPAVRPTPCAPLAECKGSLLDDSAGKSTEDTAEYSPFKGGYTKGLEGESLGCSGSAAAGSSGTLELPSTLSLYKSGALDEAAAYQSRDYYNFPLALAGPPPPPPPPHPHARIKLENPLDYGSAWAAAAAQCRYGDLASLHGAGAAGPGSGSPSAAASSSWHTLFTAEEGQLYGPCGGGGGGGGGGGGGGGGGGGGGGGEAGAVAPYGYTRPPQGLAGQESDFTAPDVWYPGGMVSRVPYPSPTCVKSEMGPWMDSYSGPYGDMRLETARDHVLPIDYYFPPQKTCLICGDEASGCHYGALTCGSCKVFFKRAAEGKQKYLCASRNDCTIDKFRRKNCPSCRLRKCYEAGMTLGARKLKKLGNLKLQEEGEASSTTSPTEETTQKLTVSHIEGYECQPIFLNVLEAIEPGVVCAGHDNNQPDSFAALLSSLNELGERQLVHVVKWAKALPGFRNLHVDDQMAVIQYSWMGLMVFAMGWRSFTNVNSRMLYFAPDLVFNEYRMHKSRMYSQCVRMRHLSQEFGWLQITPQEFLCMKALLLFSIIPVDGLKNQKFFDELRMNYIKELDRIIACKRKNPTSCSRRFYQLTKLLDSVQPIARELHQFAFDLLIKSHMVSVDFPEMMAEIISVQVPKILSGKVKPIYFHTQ
How it was run: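 AR degradation rate derived from Western blot band densitometry, referenced to GAPDH, using total lysates of LNCaP cells treated 8 h with compound versus solvent control. Detection used infrared dual-color imaging after SDS-PAGE and PVDF transfer.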

LNCaP cells = assay: Inhibition of LNCaP cell proliferation (WST-8); conditions: LNCaP FGC cells, 96 hours
How it was run: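 WST-8 absorbance at 450 nm measured proliferation after 96 h of compound exposure at 37 °C, 5% CO2. Dosing used nine 5-fold dilutions from a 10 µM top final concentration, applied to cells cultured overnight beforehand.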

VCaP cells = assay: Inhibition of VCaP cell proliferation (WST-8); conditions: 168 hours
How it was run: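 Proliferation was read on day 9 as WST-8 absorbance at 450 nm after VCaP cells (15,000/well, DMEM/10% FBS, 37°C) were exposed from day 2 to compound at 9 points, 5-fold serial dilution, top final concentration 10 µM.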

COc1cc(O[C@H]2C(C)(C)[C@H](NC(=O)c3ccc(N4CCC(C)(CN5CCC6(CC5)COc5c6ccc(C(=O)N[C@H]6CCC(=O)NC6=O)c5F)CC4)cc3)C2(C)C)ccc1C#N [A-P-85, 1'-((1-(4-(((1r,3r)-3-(4-cyano-3-methoxyphenoxy)-2,2,4,4-tetramethylcyclobutyl)carbamoyl)phenyl)-4-methylpiperidin-4-yl)methyl)-N-((S)-2,6-dioxopiperidin-3-yl)-7-fluoro-2H-spiro[benzofuran-3,4'-piperidin]-6-carboxamide]
Degradation of AR protein in LNCaP cells, 10 nM (%) (AR protein): 7% | Degradation of AR protein in LNCaP cells, 100 nM (%) (AR protein): 40% | IC50 (LNCaP cells; Homo sapiens): 0.29 µM | IC50 (VCaP cells; Homo sapiens): 0.54 µM

COc1cc(O[C@H]2C(C)(C)[C@H](NC(=O)c3ccc(N4CCC(C)(CN5CCC6(CCc7cc(C(=O)N[C@H]8CCC(=O)NC8=O)c(F)cc7O6)CC5)CC4)nn3)C2(C)C)ccc1C#N [A-P-48, 1'-((1-(6-(((1R,3R)-3-(4-cyano-3-methoxyphenoxy)-2,2,4,4-tetramethylcyclobutyl)carbamoyl)pyridazin-3-yl)-4-methylpiperidin-4-yl)methyl)-N-((S)-2,6-dioxopiperidin-3-yl)-7-fluorospiro[chroman-2,4'-piperidin]-6-carboxamide]
Degradation of AR protein in LNCaP cells, 10 nM (%) (AR protein): 45% | Degradation of AR protein in LNCaP cells, 100 nM (%) (AR protein): 63% | IC50 (LNCaP cells; Homo sapiens): 0.86 µM | IC50 (VCaP cells; Homo sapiens): 0.33 µM

COc1cc(O[C@H]2C(C)(C)[C@H](NC(=O)c3ccc(N4CCC(CN5CCN(c6ccc(C(=O)N[C@H]7CCC(=O)NC7=O)c(F)c6)CC5)CC4)cc3)C2(C)C)ccc1C#N [ARV-766, reference compound]
Degradation of AR protein in LNCaP cells, 10 nM (%) (AR protein): 49% | Degradation of AR protein in LNCaP cells, 100 nM (%) (AR protein): 78% | IC50 (LNCaP cells): 1.07 µM | IC50 (VCaP cells): 0.779 µM

CC1(C)[C@H](NC(=O)c2ccc(N3CCC(CN4CCC5(CCc6cc(C(=O)N[C@H]7CCC(=O)NC7=O)c(F)cc6O5)CC4)CC3)nc2)C(C)(C)[C@H]1Oc1ccc(C#N)c(Cl)c1 [A-P-50, 1'-((1-(5-(((1R,3R)-3-(3-chloro-4-cyanophenoxy)-2,2,4,4-tetramethylcyclobutyl)carbamoyl)pyridin-2-yl)piperidin-4-yl)methyl)-N-((S)-2,6-dioxopiperidin-3-yl)-7-fluorospiro[chroman-2,4'-piperidin]-6-carboxamide]
Degradation of AR protein in LNCaP cells, 10 nM (%) (AR protein): 73% | Degradation of AR protein in LNCaP cells, 100 nM (%) (AR protein): 91% | IC50 (LNCaP cells; Homo sapiens): 0.18 µM | IC50 (VCaP cells; Homo sapiens): 0.051 µM

C[C@H]1CC2(CCN(c3ccc(N4CCC(CN5CCC6(CC5)COc5ccc7c(c56)n(C)c(=O)n7C5CCC(=O)NC5=O)CC4)cc3)CC2)CN1c1ccc(C#N)c(Cl)c1 (stereo partly shown) [A-P-26, 2-chloro-4-((3 S)-8-(4-(4-((3-((2,6-dioxopiperidin-3-yl))-1-methyl-2-oxo-2,3-dihydro-1H,7H-spiro[benzofuro[4,5-d]imidazole-8,4'-piperidin]-1'-yl)methyl)piperidin-1-yl)phenyl)-3-methyl-2,8-diazaspiro[4.5]decan-2-yl)benzonitrile]
percent AR protein degradation at a fixed concentration at 0.01 µM (AR protein): 48% | percent AR protein degradation at a fixed concentration at 0.1 µM (AR protein): 65% | IC50 (LNCaP cells; Homo sapiens): 4.91 µM | IC50 (VCaP cells; Homo sapiens): 0.034 µM

COc1cc(O[C@H]2C(C)(C)[C@H](NC(=O)c3ccc(N4CCC(F)(CN5CC6(CCC7(CC6)COc6c7ccc7c6CN(C6CCC(=O)NC6=O)C7=O)C5)CC4)cc3)C2(C)C)ccc1C#N (relative stereo) [A-P-5]
Degradation of AR protein in LNCaP cells, 10 nM (%) (AR protein): 43% | Degradation of AR protein in LNCaP cells, 100 nM (%) (AR protein): 62% | IC50 (LNCaP cells; Homo sapiens): 1 µM | IC50 (VCaP cells; Homo sapiens): 0.0017 µM

CC1(C)[C@H](NC(=O)c2ccc(N3CCC(CN4CCC5(CCc6cc(C(=O)N[C@H]7CCC(=O)NC7=O)c(F)cc6O5)CC4)CC3)nc2)C(C)(C)[C@H]1Oc1ccc(C#N)c(C(F)(F)F)c1 [A-P-45, 1'-((1-(5-(((1R,3R)-3-(4-cyano-3-(trifluoromethyl)phenoxy)-2,2,4,4-tetramethylcyclobutyl)carbamoyl)pyridin-2-yl)piperidin-4-yl)methyl)-N-((S)-2,6-dioxopiperidin-3-yl)-7-fluorospiro[chroman-2,4'-piperidin]-6-carboxamide]
Degradation of AR protein in LNCaP cells, 10 nM (%) (AR protein): 52% | Degradation of AR protein in LNCaP cells, 100 nM (%) (AR protein): 85% | IC50 (LNCaP cells; Homo sapiens): 0.57 µM | IC50 (VCaP cells; Homo sapiens): 0.3 µM

COc1cc(O[C@H]2C(C)(C)[C@H](NC(=O)c3ccc(N4CCC(CN5CCC6(CCc7cc(C(=O)N[C@H]8CCC(=O)NC8=O)c(F)cc7O6)CC5)CC4)nc3)C2(C)C)ccc1C#N [A-P-33, 1'-((1-(5-(((1R,3R)-3-(4-cyano-3-methoxyphenoxy)-2,2,4,4-tetramethylcyclobutyl)carbamoyl)pyridin-2-yl)piperidin-4-yl)methyl)-N-((S)-2,6-dioxopiperidin-3-yl)-7-fluorospiro[chroman-2,4'-piperidin]-6-carboxamide]
Degradation of AR protein in LNCaP cells, 10 nM (%) (AR protein): 84% | Degradation of AR protein in LNCaP cells, 100 nM (%) (AR protein): 85% | IC50 (LNCaP cells; Homo sapiens): 1.58 µM | IC50 (VCaP cells; Homo sapiens): 0.45 µM

N#Cc1ccc(O[C@H]2CC[C@H](NC(=O)c3ccc(N4CCC(N5CCC6(CC5)CCC5(CC6)COc6c5ccc5c6CN(C6CCC(=O)NC6=O)C5=O)CC4)nn3)CC2)cc1Cl (relative stereo) [A-P-7, N-((1r,4r)-4-(3-chloro-4-cyanophenoxy)cyclohexy 1)-6-(4-(7-(2,6-dioxopiperidin-3-yl)-6-oxo-7,8-dihydro-2H,6H-dipyridyl[2,3-e]isoindole-3,1'-cyclohexane-4',4'"-piperidin]-1"-yl)pyridazine-3-carboxamide]
Degradation of AR protein in LNCaP cells, 10 nM (%) (AR protein): 85% | Degradation of AR protein in LNCaP cells, 100 nM (%) (AR protein): 75% | IC50 (LNCaP cells; Homo sapiens): 1.88 µM | IC50 (VCaP cells; Homo sapiens): 0.006 µM

COc1cc(O[C@H]2C(C)(C)[C@H](NC(=O)c3ccc(N4CCC(F)(CN5CCC6(CCc7cc(C(=O)N[C@H]8CCC(=O)NC8=O)c(F)cc7O6)CC5)CC4)cc3)C2(C)C)ccc1C#N [A-P-52, 1'-((1-(4-(((1r,3r)-3-(4-cyano-3-methoxyphenoxy)-2,2,4,4-tetramethylcyclobutyl)carbamoyl)phenyl)-4-fluoropiperidin-4-yl)methyl)-N-((S)-2,6-dioxopiperidin-3-yl)-7-fluorospiro[chroman-2,4'-piperidin]-6-carboxamide]
Degradation of AR protein in LNCaP cells, 10 nM (%) (AR protein): -56% | Degradation of AR protein in LNCaP cells, 100 nM (%) (AR protein): 23% | IC50 (LNCaP cells; Homo sapiens): 0.2 µM | IC50 (VCaP cells; Homo sapiens): 4.24 µM

C[C@H]1CC2(CCN(c3ccc(C(=O)N4CCC(CN5CCN6c7ccc(C(=O)N[C@H]8CCC(=O)NC8=O)cc7OC[C@@H]6C5)CC4)cc3)CC2)CN1c1ccc(C#N)c(Cl)c1 [A-P-69]
Degradation of AR protein in LNCaP cells, 10 nM (%) (AR protein): 52% | Degradation of AR protein in LNCaP cells, 100 nM (%) (AR protein): 79% | IC50 (LNCaP cells; Homo sapiens): 0.28 µM | IC50 (VCaP cells; Homo sapiens): 1.32 µM

COc1cc(O[C@H]2C(C)(C)[C@H](NC(=O)c3ccc(N4CCC(N5CCC6(CC5)COc5c6ccc6c5n(C)c(=O)n6C5CCC(=O)NC5=O)CC4)cc3)C2(C)C)ccc1C#N (stereo partly shown) [A-P-29]
percent AR protein degradation at a fixed concentration at 0.01 µM (AR protein): 6% | percent AR protein degradation at a fixed concentration at 0.1 µM (AR protein): -27% | IC50 (LNCaP cells; Homo sapiens): 15.1 µM | IC50 (VCaP cells; Homo sapiens): 0.019 µM

COc1cc(O[C@H]2C(C)(C)[C@H](NC(=O)c3ccc(N4CCC(C)(CN5CCC6(CCc7cc(C(=O)N[C@H]8CCC(=O)NC8=O)c(F)cc7O6)CC5)CC4)nc3)C2(C)C)ccc1C#N [A-P-49, 1'-((1-(5-(((1R,3R)-3-(4-cyano-3-methoxyphenoxy)-2,2,4,4-tetramethylcyclobutyl)carbamoyl)pyridin-2-yl)-4-methylpiperidin-4-yl)methyl)-N-((S)-2,6-dioxopiperidin-3-yl)-7-fluorospiro[chroman-2,4'-piperidin]-6-carboxamide]
Degradation of AR protein in LNCaP cells, 10 nM (%) (AR protein): 48% | Degradation of AR protein in LNCaP cells, 100 nM (%) (AR protein): 62% | IC50 (LNCaP cells; Homo sapiens): 0.6 µM | IC50 (VCaP cells; Homo sapiens): 0.041 µM
